Results taken from patent US9579306B2, “Substituted 2-imidazolidinones and 2-imidazolones and their use in the treatment of cancer” (UNIVERSITÉ LAVAL, priority 2011, dated 2017).

Row | SMILES | melting point
1 | CCCN1CCN(c2ccc(S(=O)(=O)Oc3cc(OC)c(OC)c(OC)c3)cc2)C1=O [Compound 101, 3,4,5-trimethoxyphenyl 4-(2-oxo-3-propylimidazolidin-1-yl)benzenesulfonate] | 133 to 134 °C
2 | CCCN1CCN(c2ccc(S(=O)(=O)Oc3cc(OC)cc(OC)c3)cc2)C1=O [Compound 104, 3,5-dimethoxyphenyl 4-(2-oxo-3-propylimidazolidin-1-yl)benzenesulfonate] | 104 to 105 °C
